Experimental data as given in patent publication US20250144067A1, “PERSONALIZED STARVATION THERAPY FOR CANCER” (Faeth Therapeutics, Inc., priority 2021, published 2025).
Structures can show the parent of a compound that is named as a salt.

The compounds below were run on NCI-H292 lung cancer cells (assay: FDA drug screening, complete media vs cholesterol-free media with simvastatin (TABLE 2)). Conditions: not given.
Type: cell-based, human
For `O=C([O-])c1ccccc1O.[Na+]` [Sodium Salicylate], the “Cholesterol-free media + simvastatin (0.04 μM)” value was 1.29, the “Complete Media” value was 1.045 and the Difference was −0.24. For `O.O.O=C([O-])CC(O)(CC(=O)[O-])C(=O)[O-].[Na+].[Na+].[Na+]` [Sodium citrate (dihydrate)], the “Cholesterol-free media + simvastatin (0.04 μM)” value was 1.04, the “Complete Media” value was 1.108 and the Difference was 0.07.

Same assay, conditions: NCI-H292 cells, FDA drug library screen, cholesterol-free media with simvastatin 0.04 μM
In the case of `O=S(=O)(O)Oc1ccc(C(c2ccc(OS(=O)(=O)O)cc2)c2ccccn2)cc1` [Sodium Picosulfate], the “Cholesterol-free media + simvastatin (0.04 μM)” value is reported as 0.987. With `CC(=O)Nc1c(I)c(NC(C)=O)c(I)c(C(=O)[O-])c1I.[Na+]` [Sodium diatrizoate] the “Cholesterol-free media + simvastatin (0.04 μM)” value was 0.8717. `NC(=O)OC[C@H](N)Cc1ccccc1` [Solriamfetol (hydrochloride)] was tested, and the “Cholesterol-free media + simvastatin (0.04 μM)” value was 0.997. In the case of `CNC(=O)c1cc(Oc2ccc(NC(=O)Nc3ccc(Cl)c(C(F)(F)F)c3)cc2)ccn1` [Sorafenib], the “Cholesterol-free media + simvastatin (0.04 μM)” value is reported as 0.7364. For `CCOc1ccc(Cc2cc([C@@H]3O[C@H](SC)[C@@H](O)[C@H](O)[C@H]3O)ccc2Cl)cc1` [Sotagliflozin], the “Cholesterol-free media + simvastatin (0.04 μM)” value was 1.193. For `CC(C)NCC(O)c1ccc(NS(C)(=O)=O)cc1` (centres unmarked) [Sotalol (hydrochloride)], the “Cholesterol-free media + simvastatin (0.04 μM)” value was 0.8339. With `C[C@@H]1CN(c2c(F)c(N)c3c(=O)c(C(=O)O)cn(C4CC4)c3c2F)C[C@H](C)N1` [Sparfloxacin] the “Cholesterol-free media + simvastatin (0.04 μM)” value was 0.949. `CCCCCCCCCCCCCCCCCC(=O)O` [Stearic acid] was tested, and the “Cholesterol-free media + simvastatin (0.04 μM)” value was 1.741.

Same assay, conditions: NCI-H292 cells, FDA drug library screen, complete media
For `O=S(=O)(O)Oc1ccc(C(c2ccc(OS(=O)(=O)O)cc2)c2ccccn2)cc1` [Sodium Picosulfate], the “Complete Media” value was 1.164. `CC(=O)Nc1c(I)c(NC(C)=O)c(I)c(C(=O)[O-])c1I.[Na+]` [Sodium diatrizoate] was tested, and the “Complete Media” value was 1.037. With `NC(=O)OC[C@H](N)Cc1ccccc1` [Solriamfetol (hydrochloride)] the “Complete Media” value was 1.138. For `CNC(=O)c1cc(Oc2ccc(NC(=O)Nc3ccc(Cl)c(C(F)(F)F)c3)cc2)ccn1` [Sorafenib], the “Complete Media” value was 0.915. For `CCOc1ccc(Cc2cc([C@@H]3O[C@H](SC)[C@@H](O)[C@H](O)[C@H]3O)ccc2Cl)cc1` [Sotagliflozin], the “Complete Media” value was 1.078. In the case of `CC(C)NCC(O)c1ccc(NS(C)(=O)=O)cc1` (centres unmarked) [Sotalol (hydrochloride)], the “Complete Media” value is reported as 0.7583. In the case of `C[C@@H]1CN(c2c(F)c(N)c3c(=O)c(C(=O)O)cn(C4CC4)c3c2F)C[C@H](C)N1` [Sparfloxacin], the “Complete Media” value is reported as 1.118.

Same assay, conditions: NCI-H292 cells, FDA library drug in cholesterol-free media with simvastatin 0.04 μM
With `O=C(O[C@H]1CN2CCC1CC2)N1CCc2ccccc2[C@@H]1c1ccccc1` [Solifenacin] the “Cholesterol-free media + simvastatin (0.04 μM)” value was 1.222. For `NC(=O)OC[C@H](N)Cc1ccccc1` [Solriamfetol], the “Cholesterol-free media + simvastatin (0.04 μM)” value was 1.23. `O=C1CCC[C@@H]2[C@H]3CCCN4CCC[C@H](CN12)[C@@H]34` [Sophoridine] was tested, and the “Cholesterol-free media + simvastatin (0.04 μM)” value was 1.337. With `CC(=O)S[C@@H]1CC2=CC(=O)CC[C@]2(C)[C@H]2CC[C@@]3(C)[C@@H](CC[C@@]34CCC(=O)O4)[C@H]12` [Spironolactone] the “Cholesterol-free media + simvastatin (0.04 μM)” value was 1.784.

Same assay, conditions: NCI-H292 cells, FDA library drug in complete media
For `O=C(O[C@H]1CN2CCC1CC2)N1CCc2ccccc2[C@@H]1c1ccccc1` [Solifenacin], the “Complete Media” value was 0.9497. For `NC(=O)OC[C@H](N)Cc1ccccc1` [Solriamfetol], the “Complete Media” value was 0.8852. With `O=C1CCC[C@@H]2[C@H]3CCCN4CCC[C@H](CN12)[C@@H]34` [Sophoridine] the “Complete Media” value was 1.063. In the case of `CC(=O)S[C@@H]1CC2=CC(=O)CC[C@]2(C)[C@H]2CC[C@@]3(C)[C@@H](CC[C@@]34CCC(=O)O4)[C@H]12` [Spironolactone], the “Complete Media” value is reported as 1.272.

Same assay, conditions: complete media minus cholesterol-free media + simvastatin (0.04 μM); >0 enhanced anti-cancer activity, about 0 neutral, <0 antagonist
For `CCCCCCCCCCCCCCCCCC(=O)O` [Stearic acid], the Difference was −1.08.

Same assay, conditions: complete media minus cholesterol-free media + simvastatin; >0 enhanced anti-cancer activity, about 0 neutral, <0 antagonist
In the case of `O=S(=O)(O)Oc1ccc(C(c2ccc(OS(=O)(=O)O)cc2)c2ccccn2)cc1` [Sodium Picosulfate], the Difference is reported as 0.18. Compound `CC(=O)Nc1c(I)c(NC(C)=O)c(I)c(C(=O)[O-])c1I.[Na+]` [Sodium diatrizoate] has a Difference of 0.16. `CNC(=O)c1cc(Oc2ccc(NC(=O)Nc3ccc(Cl)c(C(F)(F)F)c3)cc2)ccn1` [Sorafenib] was tested, and the Difference was 0.18. In the case of `C[C@@H]1CN(c2c(F)c(N)c3c(=O)c(C(=O)O)cn(C4CC4)c3c2F)C[C@H](C)N1` [Sparfloxacin], the Difference is reported as 0.17.

Same assay, conditions: complete media minus cholesterol-free media + simvastatin; […]
`NC(=O)OC[C@H](N)Cc1ccccc1` [Solriamfetol (hydrochloride)] was tested, and the Difference was 0.14.

Same assay, conditions: complete media vs cholesterol-free media + simvastatin (0.04 μM); >0 enhanced anti-cancer activity, about 0 neutral, <0 antagonist
`O=C(O[C@H]1CN2CCC1CC2)N1CCc2ccccc2[C@@H]1c1ccccc1` [Solifenacin] was tested, and the Difference was −0.27. `CCOc1ccc(Cc2cc([C@@H]3O[C@H](SC)[C@@H](O)[C@H](O)[C@H]3O)ccc2Cl)cc1` [Sotagliflozin] was tested, and the Difference was −0.11. For `CC(C)NCC(O)c1ccc(NS(C)(=O)=O)cc1` (centres unmarked) [Sotalol (hydrochloride)], the Difference was −0.08. In the case of `CC(=O)S[C@@H]1CC2=CC(=O)CC[C@]2(C)[C@H]2CC[C@@]3(C)[C@@H](CC[C@@]34CCC(=O)O4)[C@H]12` [Spironolactone], the Difference is reported as −0.51.

Same assay, conditions: complete media vs cholesterol-free media + simvastatin (0.04 μM); […]
Work on `NC(=O)OC[C@H](N)Cc1ccccc1` [Solriamfetol] yielded a Difference of −0.34. For `O=C1CCC[C@@H]2[C@H]3CCCN4CCC[C@H](CN12)[C@@H]34` [Sophoridine], the Difference was −0.27.

The compounds below were run on NCI-H292 lung cancer cells (assay: FDA drug screening, complete media vs cholesterol-free media without statin (TABLE 1)). Conditions: not given.
Type: cell-based, human
`O=C([O-])c1ccccc1O.[Na+]` [Sodium Salicylate] was tested, and the Cholesterol-free was 1.153, the Complete was 0.943 and the Difference was −0.21. `O.O.O=C([O-])CC(O)(CC(=O)[O-])C(=O)[O-].[Na+].[Na+].[Na+]` [Sodium citrate (dihydrate)] showed a Cholesterol-free of 0.7144, a Complete of 0.9967 and a Difference of 0.28.

Same assay, conditions: Complete minus Cholesterol-free; >0 enhanced anti-cancer activity, about 0 neutral, <0 antagonist
In the case of `O=C(O[C@H]1CN2CCC1CC2)N1CCc2ccccc2[C@@H]1c1ccccc1` [Solifenacin], the Difference is reported as −0.26. In the case of `CC(=O)S[C@@H]1CC2=CC(=O)CC[C@]2(C)[C@H]2CC[C@@]3(C)[C@@H](CC[C@@]34CCC(=O)O4)[C@H]12` [Spironolactone], the Difference is reported as 0.03.

Same assay, conditions: Complete minus Cholesterol-free; […]
For `NC(=O)OC[C@H](N)Cc1ccccc1` [Solriamfetol (hydrochloride)], the Difference was −0.02. Compound `NC(=O)OC[C@H](N)Cc1ccccc1` [Solriamfetol] has a Difference of −0.04.

Same assay, conditions: Complete minus Cholesterol-free; greater than 0 enhanced anti-cancer activity, about 0 neutral, below 0 antagonist
For `CC(=O)Nc1c(I)c(NC(C)=O)c(I)c(C(=O)[O-])c1I.[Na+]` [Sodium diatrizoate], the Difference was −0.08. In the case of `CCOc1ccc(Cc2cc([C@@H]3O[C@H](SC)[C@@H](O)[C@H](O)[C@H]3O)ccc2Cl)cc1` [Sotagliflozin], the Difference is reported as −0.11. `CCCCCCCCCCCCCCCCCC(=O)O` [Stearic acid] gave a Difference of −0.14.

Same assay, conditions: Complete minus Cholesterol-free; greater than 0 enhanced anti-cancer activity, about 0 neutral, below 0 antagonists
`C[C@@H]1CN(c2c(F)c(N)c3c(=O)c(C(=O)O)cn(C4CC4)c3c2F)C[C@H](C)N1` [Sparfloxacin] was tested, and the Difference was −0.52.

Same assay, conditions: NCI-H292 cells in cholesterol-free media without statin
Compound `C[C@@H]1CN(c2c(F)c(N)c3c(=O)c(C(=O)O)cn(C4CC4)c3c2F)C[C@H](C)N1` [Sparfloxacin] has a Cholesterol-free of 1.45.

Same assay, conditions: NCI-H292 cells in complete media
For `C[C@@H]1CN(c2c(F)c(N)c3c(=O)c(C(=O)O)cn(C4CC4)c3c2F)C[C@H](C)N1` [Sparfloxacin], the Complete was 0.9275.

Same assay, conditions: NCI-H292 cells, FDA drug library screen, cholesterol-free media without statin
Compound `CC(=O)Nc1c(I)c(NC(C)=O)c(I)c(C(=O)[O-])c1I.[Na+]` [Sodium diatrizoate] has a Cholesterol-free of 1.128. `CCOc1ccc(Cc2cc([C@@H]3O[C@H](SC)[C@@H](O)[C@H](O)[C@H]3O)ccc2Cl)cc1` [Sotagliflozin] showed a Cholesterol-free of 1.101. In the case of `CCCCCCCCCCCCCCCCCC(=O)O` [Stearic acid], the Cholesterol-free is reported as 1.159.

Same assay, conditions: NCI-H292 cells, FDA drug library screen, complete media
For `CC(=O)Nc1c(I)c(NC(C)=O)c(I)c(C(=O)[O-])c1I.[Na+]` [Sodium diatrizoate], the Complete was 1.045. Compound `CCOc1ccc(Cc2cc([C@@H]3O[C@H](SC)[C@@H](O)[C@H](O)[C@H]3O)ccc2Cl)cc1` [Sotagliflozin] has a Complete of 0.9895. Compound `CCCCCCCCCCCCCCCCCC(=O)O` [Stearic acid] has a Complete of 1.022.

Same assay, conditions: NCI-H292 cells, cholesterol-free media without statin
`O=S(=O)(O)Oc1ccc(C(c2ccc(OS(=O)(=O)O)cc2)c2ccccn2)cc1` [Sodium Picosulfate] was tested, and the Cholesterol-free was 1.414. Compound `O=C(O[C@H]1CN2CCC1CC2)N1CCc2ccccc2[C@@H]1c1ccccc1` [Solifenacin] has a Cholesterol-free of 1.142. With `O=C1CCC[C@@H]2[C@H]3CCCN4CCC[C@H](CN12)[C@@H]34` [Sophoridine] the Cholesterol-free was 1.507. For `CC(C)NCC(O)c1ccc(NS(C)(=O)=O)cc1` (centres unmarked) [Sotalol (hydrochloride)], the Cholesterol-free was 1.39.

Same assay, conditions: NCI-H292 cells, cholesterol-free media without statin, FDA drug library screen
For `NC(=O)OC[C@H](N)Cc1ccccc1` [Solriamfetol (hydrochloride)], the Cholesterol-free was 1.017. Work on `NC(=O)OC[C@H](N)Cc1ccccc1` [Solriamfetol] yielded a Cholesterol-free of 1.006. `CNC(=O)c1cc(Oc2ccc(NC(=O)Nc3ccc(Cl)c(C(F)(F)F)c3)cc2)ccn1` [Sorafenib] was tested, and the Cholesterol-free was 0.8045. `CC(=O)S[C@@H]1CC2=CC(=O)CC[C@]2(C)[C@H]2CC[C@@]3(C)[C@@H](CC[C@@]34CCC(=O)O4)[C@H]12` [Spironolactone] showed a Cholesterol-free of 1.102.

Same assay, conditions: NCI-H292 cells, complete media
`O=S(=O)(O)Oc1ccc(C(c2ccc(OS(=O)(=O)O)cc2)c2ccccn2)cc1` [Sodium Picosulfate] was tested, and the Complete was 1.043. With `O=C(O[C@H]1CN2CCC1CC2)N1CCc2ccccc2[C@@H]1c1ccccc1` [Solifenacin] the Complete was 0.8797. Compound `O=C1CCC[C@@H]2[C@H]3CCCN4CCC[C@H](CN12)[C@@H]34` [Sophoridine] has a Complete of 1.042. With `CC(C)NCC(O)c1ccc(NS(C)(=O)=O)cc1` (centres unmarked) [Sotalol (hydrochloride)] the Complete was 0.9629.

Same assay, conditions: NCI-H292 cells, complete media, FDA drug library screen
With `NC(=O)OC[C@H](N)Cc1ccccc1` [Solriamfetol (hydrochloride)] the Complete was 1. `NC(=O)OC[C@H](N)Cc1ccccc1` [Solriamfetol] showed a Complete of 0.9654. Work on `CNC(=O)c1cc(Oc2ccc(NC(=O)Nc3ccc(Cl)c(C(F)(F)F)c3)cc2)ccn1` [Sorafenib] yielded a Complete of 1.015. For `CC(=O)S[C@@H]1CC2=CC(=O)CC[C@]2(C)[C@H]2CC[C@@]3(C)[C@@H](CC[C@@]34CCC(=O)O4)[C@H]12` [Spironolactone], the Complete was 1.134.

Same assay, conditions: complete vs cholesterol-free media; >0 enhanced anti-cancer activity, about 0 neutral, <0 antagonist
`CNC(=O)c1cc(Oc2ccc(NC(=O)Nc3ccc(Cl)c(C(F)(F)F)c3)cc2)ccn1` [Sorafenib] showed a Difference of 0.21.

Same assay, conditions: complete vs cholesterol-free media; […]
Work on `O=C1CCC[C@@H]2[C@H]3CCCN4CCC[C@H](CN12)[C@@H]34` [Sophoridine] yielded a Difference of −0.46.

Same assay, conditions: complete vs cholesterol-free media; greater than 0 enhanced anti-cancer activity, about 0 neutral, below 0 antagonists
Compound `O=S(=O)(O)Oc1ccc(C(c2ccc(OS(=O)(=O)O)cc2)c2ccccn2)cc1` [Sodium Picosulfate] has a Difference of −0.37. `CC(C)NCC(O)c1ccc(NS(C)(=O)=O)cc1` (centres unmarked) [Sotalol (hydrochloride)] showed a Difference of −0.43.
